# In US8226986B2 (priority 2006, dated 2012):
# Like-named read-outs stand apart in the source and are kept apart here. Marks after values point to notes of the source that are not given here.
# Columns and labels:
# [1] = tested on: neutrophil adhesion, leukocyte-mediated inflam.; settings: cited from earlier work
# [2] = tested on: aortic occlusion-induced ischemia/reperfusion (I/R) injury; assay type: in vivo, pig; settings: median, initial study
# Cerebral Ischemia = settings: 0.18 mmol/kg IP, 24 hours after MCAO; cited from earlier work
# vascular calcification = settings: 2.8 or 14 uM/day, daily; cited from earlier work
# [3] = tested on: myocardial ishemia-reperfusion injury; settings: 3 mg/kg IP, 15 min before LAD; cited from earlier work
# inflammation = settings: 1, 5 and 10 mg/kg IP, 1-6 hours before study; cited from earlier work
# erectile dysfunction = settings: 0.25-80 umol/kg, Intracaver., before experiment; cited from earlier work
# cardioprotectant = settings: 2.8 umol/kg IV, time zero; cited from earlier work
# [4] = tested on: Gastric injury caused by NSAIDS; settings: 25, 50, 100, or 150 mol/kg IP, immediately prior; cited from earlier work
# [5] = tested on: myocardial ischemia-reperfusion injury; parameters: dose or concentration left out as unconfirmed; settings: 1 um, 10 um NaHS, perfusion, 10 min prior to LCA occlusion; cited from earlier work
# Irritable bowel syndrome = settings: 25, 50, or 100 mg/kg IP, 10 minutes post IBS model; cited from earlier work
compound,measurement,setting,value
sodium sulfide [Na2S],Benefit: inflammation,"[1]; rat, in vivo, ip",inhibits inflammation
"S [NaHS, sodium hydrosulfide]","Tail moment (comet assay, DNA damage)",[2]; 1 h after clamping,0.12 §
same,"Tail moment (comet assay, DNA damage)",[2]; 2 h after clamping,0.12 §
same,"Tail moment (comet assay, DNA damage)",[2]; 4 h after clamping,0.14
same,"Tail moment (comet assay, DNA damage)",[2]; 8 h after clamping,0.14
same,"Tail moment (comet assay, DNA damage)",[2]; Before clamping,0.11
same,"Tail moment (comet assay, DNA damage)",[2]; Before infusion,0.125
same,infarct volume,Cerebral Ischemia,increased to 150% of % of control
same,Benefit: vascular calcification,vascular calcification,reduces vascular
same,Benefit: cardioprotection,[3],cardioprotective opens
same,Benefit: substance P levels,inflammation,Increases substance P
same,Benefit: intra-cavernous pressure,erectile dysfunction,Increase intra-
same,Benefit: central venous pressure,cardioprotectant,decrease central
same,Benefit: injury produced by NSAID and ASA,[4],reduces injury
same,Benefit: inflammation,"[1]; 1-100 uMol/kg IP, 30 min prior to cargeenan injection",inhibits inflammation
O.[Na+].[SH-] [NaHS•xH2O],Benefit: infarct size,[5],"NAHS, limited infarct"
Nc1ccc(O)c(C(=O)Oc2ccc(-c3cc(=S)ss3)cc2)c1 [ATB-429],Benefit: pain and inflammation,Irritable bowel syndrome,Pain killing and some
